The values below come from ChEMBL document CHEMBL1140189, “Lignans from the roots of Saururus chinensis” (J Nat Prod, 2008).

What all share (assay type): functional, cell-based
In assay [1] the test system is HT-29. Briefly: Cytotoxicity against human HT29 cells by MTT assay.
Assay [2] has as its system HepG2. Briefly: Cytotoxicity against human HEPG2 cells by MTT assay.
Assay [3] relates to MCF7. The assay is described as follows: Cytotoxicity against human MCF7 cells by MTT assay.

For `COc1ccc([C@H](O)[C@@H](C)Oc2ccc([C@H]3O[C@H](c4ccc5c(c4)OCO5)[C@H](C)[C@H]3C)cc2OC)cc1OC` [SAUCERNEOL D], the IC50 in assay [1] was 13 µM; in assay [2], 16 µM; in assay [3] it was over 100 µM.
For `CC(Cc1cc2c(cc1O)OCO2)C(C)C(=O)c1ccc2c(c1)OCO2` (stereo not drawn) [SAUCERNEOL G] the same measures were 55 µM, 62 µM and 64 µM.
On to `COc1cc([C@H]2O[C@H](c3ccc4c(c3)OCO4)[C@H](C)[C@H]2C)ccc1O[C@H](C)[C@@H](O)c1ccc2c(c1)OCO2` [SAUCERNEOL F], for which the half-inhibitory concentration (IC50) in assay [1] is 10 µM; in assay [2] it was 11 µM; in assay [3], over 100 µM.
The like results for `CC[C@@]1(O)C(=O)OCc2c1cc1n(c2=O)Cc2cc3ccccc3nc2-1` [CAMPTOTHECIN] were, in that order, 2 µM, 0.3 µM and 10 µM.
The like results for `CC(Cc1cc2c(cc1O)OCO2)[C@@H](C)[C@H](O)c1ccc2c(c1)OCO2` (single isomer, unassigned) [SAUCERNEOL H] were, in that order, 53 µM, 61 µM and 72 µM.
The like results for `C[C@@H]([C@H](C)[C@H](O)c1ccc2c(c1)OCO2)[C@H](O)c1ccc2c(c1)OCO2` [SAUCERNEOL I] were, in that order, 21 µM, over 100 µM and over 100 µM.
